“Also recorded” adds a separate entry of the source.

In one experiment the test system is palivizumab. Nature of the experiment: ELISA binding of palivizumab to coated V-306, V-306p or SVLP carrier. Also noted: species or system humanized murine. The method, then:
These ELISA were performed at the Center for Vaccinology (CEVAC), Ghent University and University Hospital, Belgium, based on the methods described above. […] Then 8 twofold serial dilutions of human serum were added. After washing, anti-human IgG Fc mAb-HRP (1/120,000 dilution) was added. After washing, TMB substrate was added. The color reaction was terminated by the addition of 1 N sulphuric acid. After 30 min the OD is read. The optical density for a given sample was used to extrapolate the Ab titer expressed in µg/mL. The coating conditions were optimized using IgG-depleted human serum spiked with known concentrations of palivizumab such that no further increase in signal is observed (saturation point) and no significant signal is seen in the negative control. The sensitivity of the assay was determined using different concentrations of palivizumab (from 0 to 200 µg/mL) and of anti-human IgG HRP-conjugated Ab (see Supplementary Fig. 5). The detection limit was 0.012207 µg/mL palivizumab (0.61 µg/mL in human serum diluted 1/50). The palivizumab-like Ab concentrations found in 20 different human sera (serum samples 001–020) are shown in Supplementary Fig. 5.
On the technique in general: ELISA stands for enzyme-linked immunosorbent assay.

Another experiment concerns RSV A Tracy. The experiment is described as follows: RSV A Tracy microneutralization (MN) assay of mAbs. The class given is cell-based, respiratory syncytial virus. The following applies: for MN titer: RSV A Tracy, HEp-2 cells, 50% reduction in viral cytopathic effect. The procedure:
The RSV A Tracy MN assay was performed by Prof. Pedro Piedra at Baylor College of Medicine, Texas, USA. Heat-inactivated serum samples were analyzed for nAbs against RSV A/Tracy in HEp-2 cells using qualified MN assays as previously described[38]–[41]. nAb titers were defined as the final dilution at which there was a 50% reduction in viral cytopathic effect. Any serum sample resulting in a titer less than the lower limit of detection (LOD) (2.5 log2) was assigned a value of 2 log2.
For orientation: Cytopathic effects are the visible damage that an infection or toxin causes in cultured cells.

Another experiment has as its system RSV strain A2. The experiment is described as follows: Passive transfer challenge model, lung virus titer by plaque assay. The class given is in vivo. The following applies: cotton rats n = 5, mAb 24 h before challenge with 10^4 PFU RSV A2, doses 1.0, 2.5, 5.0, 15 mg; lungs day 5; ****P ≤ 0.0001 vs PBS. The procedure: The challenge study comparing 10D11 and palivizumab was performed at Sigmovir Biosystems Inc. (MD, USA). Young adult male cotton rats (8, 6–8 weeks old) were treated IM with the mAb (1.0, 2.5, 5.0, or 15 mg doses). All animals were challenged with 100 µl RSV/A2 at 10^5 pfu per animal. After sacrificing the animals, nasal and lung tissue were harvested for viral titration using the RSV/A2 60% PRNT assay described above.

As for “palivizumab: prophylactic humanized murine monoclonal nAb”, the “detection limit of ELISA” value in the experiment with palivizumab (ELISA with palivizumab standard 0 to 200 µg/mL) was 0.01221 µg/mL. Besides, the “detection limit of ELISA in human serum” value in the experiment with palivizumab (human serum diluted 1/50) worked out at 0.61 µg/mL. The same molecule came in with an MN titer in the experiment with RSV A Tracy of 5.0 log2. The “reduction of RSV replication in lungs, passive transfer” value with RSV strain A2 is on record as “significantly reduced RSV replication in the lungs in a dose-dependent manner”.

B1: 10D11: monoclonal antibody against V-306 generated in BALB/c mice (antibody, V domains shown)
VH: QVQLKESGPGLVAPSQSLSITCTVSGFSLTSYDISWIRQPPGKGLEWLGIIWNGGGTNYNSAFMSRLSINKDNSKSQVFLKMNSLQTDDTAIYYCVRGDYDYAWFDYWGQGTLVTVSA
VL: NIMMTQSPSSLTVSAGEKVTMSCKSSQSVLYGSNQKNYLAWYQQKPGQSPKLLIYWASTRDSGVPDRFTGSGSGTDFTLTISSVQAEDLAVYYCHQYLFSWTFGGGTKLEIK
On to B1, for which the “MN potency of 10D11 relative to palivizumab (fold)” value in the experiment with RSV A Tracy (RSV A Tracy MN) is on record as “approximately fourfold”. Also, the MN titer in the experiment with RSV A Tracy was found to be 7.0 log2. Also, the “reduction of RSV replication in lungs, passive transfer” value in the experiment on RSV strain A2 was “significantly reduced RSV replication in the lungs in a dose-dependent manner; also recorded: reduced lung virus titers in a dose-dependent manner”.

These data come from paper PMC8213762, “An epitope-specific chemically defined nanoparticle vaccine for respiratory syncytial virus” (NPJ Vaccines, 2021).
